# Reference: PubChem BioAssay AID2060626 (Molecular Pharmacology Branch, DTP, NCI, 2025)
# Test system: 168753-222-R-J1-PDC complex spheroid viability
# Assay: Anticancer human tumor 168753-222-R-J1-PDC patient-derived bladder carcinoma cell line growth inhibition [CLK]
# Conditions: second compound 0.1 µM; first compound 1 µM; active compounds read low
# Procedure, shortened: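 Multi-cell-type spheroids combined patient-derived tumor cells with HUVEC endothelial cells and human mesenchymal stem cells. Paired agents were dosed in half-log steps down from about clinical Cmax, or from 10 microM where Cmax was unknown.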
# 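Also: luminescence signal used as surrogate for viable cell amount; viability measured after seven days of drug exposure; 100% = DMSO vehicle control wells.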
row,Structure (SMILES),"viability, T/C [%]"
1,C=C(F)C(=O)N1CCN(c2nc(OCC3CCCN3C)nc3c2CCN(c2cccc4cccc(Cl)c24)C3)CC1CC#N (configuration not stated) + CNC(=O)c1ccc(Nc2nc(OC3CCCC3)c3c(-c4ccc5nc(C)oc5c4)c[nH]c3n2)c(OC)c1,96.2
2,CC(CO)NC(=O)c1cc(-c2ccc(Cl)cc2)nn(-c2cnn(C)c2)c1=O (configuration not stated) + CNC(=O)c1ccc(Nc2nc(OC3CCCC3)c3c(-c4ccc5nc(C)oc5c4)c[nH]c3n2)c(OC)c1,96.7
3,CC(Nc1ccc2c(c1)OCCn1cc(N3C(=O)OCC3C(F)F)nc1-2)C(N)=O (configuration not stated) + CNC(=O)c1ccc(Nc2nc(OC3CCCC3)c3c(-c4ccc5nc(C)oc5c4)c[nH]c3n2)c(OC)c1,14.3
4,COc1c(OCCCN2CCOCC2)ccc2c3n(c(=NC(=O)c4cnc(N)nc4)nc12)CCN3 + CNC(=O)c1ccc(Nc2nc(OC3CCCC3)c3c(-c4ccc5nc(C)oc5c4)c[nH]c3n2)c(OC)c1,1.03

# Same assay, conditions: second compound 0.1 µM; first compound 3.16 µM; active compounds read low
row,Structure (SMILES),"viability, T/C [%]"
1,C#Cc1c(F)ccc2cc(O)cc(-c3ncc4c(N5CC6CCC(C5)N6)nc(OCC56CCCN5CC(F)C6)nc4c3F)c12 (configuration not stated) + CNC(=O)c1ccc(Nc2nc(OC3CCCC3)c3c(-c4ccc5nc(C)oc5c4)c[nH]c3n2)c(OC)c1,90.1
2,C=C(F)C(=O)N1CCN(c2nc(OCC3CCCN3C)nc3c2CCN(c2cccc4cccc(Cl)c24)C3)CC1CC#N (configuration not stated) + CNC(=O)c1ccc(Nc2nc(OC3CCCC3)c3c(-c4ccc5nc(C)oc5c4)c[nH]c3n2)c(OC)c1,96.5
3,CC(CO)NC(=O)c1cc(-c2ccc(Cl)cc2)nn(-c2cnn(C)c2)c1=O (configuration not stated) + CNC(=O)c1ccc(Nc2nc(OC3CCCC3)c3c(-c4ccc5nc(C)oc5c4)c[nH]c3n2)c(OC)c1,95
4,CC(Nc1ccc2c(c1)OCCn1cc(N3C(=O)OCC3C(F)F)nc1-2)C(N)=O (configuration not stated) + CNC(=O)c1ccc(Nc2nc(OC3CCCC3)c3c(-c4ccc5nc(C)oc5c4)c[nH]c3n2)c(OC)c1,13.5

# Same assay, conditions: second compound 0.1 µM; first compound 10 µM; active compounds read low
row,Structure (SMILES),"viability, T/C [%]"
1,C#Cc1c(F)ccc2cc(O)cc(-c3ncc4c(N5CC6CCC(C5)N6)nc(OCC56CCCN5CC(F)C6)nc4c3F)c12 (configuration not stated) + CNC(=O)c1ccc(Nc2nc(OC3CCCC3)c3c(-c4ccc5nc(C)oc5c4)c[nH]c3n2)c(OC)c1,73
2,C=C(F)C(=O)N1CCN(c2nc(OCC3CCCN3C)nc3c2CCN(c2cccc4cccc(Cl)c24)C3)CC1CC#N (configuration not stated) + CNC(=O)c1ccc(Nc2nc(OC3CCCC3)c3c(-c4ccc5nc(C)oc5c4)c[nH]c3n2)c(OC)c1,30
3,CC(CO)NC(=O)c1cc(-c2ccc(Cl)cc2)nn(-c2cnn(C)c2)c1=O (configuration not stated) + CNC(=O)c1ccc(Nc2nc(OC3CCCC3)c3c(-c4ccc5nc(C)oc5c4)c[nH]c3n2)c(OC)c1,85.1
4,CC(Nc1ccc2c(c1)OCCn1cc(N3C(=O)OCC3C(F)F)nc1-2)C(N)=O (configuration not stated) + CNC(=O)c1ccc(Nc2nc(OC3CCCC3)c3c(-c4ccc5nc(C)oc5c4)c[nH]c3n2)c(OC)c1,11.6

# Same assay, conditions: second compound 0.316 µM; first compound 0.00316 µM; active compounds read low
row,Structure (SMILES),"viability, T/C [%]"
1,COc1c(OCCCN2CCOCC2)ccc2c3n(c(=NC(=O)c4cnc(N)nc4)nc12)CCN3 + CNC(=O)c1ccc(Nc2nc(OC3CCCC3)c3c(-c4ccc5nc(C)oc5c4)c[nH]c3n2)c(OC)c1,67.3

# Same assay, conditions: second compound 0.316 µM; first compound 0.01 µM; active compounds read low
row,Structure (SMILES),"viability, T/C [%]"
1,COc1c(OCCCN2CCOCC2)ccc2c3n(c(=NC(=O)c4cnc(N)nc4)nc12)CCN3 + CNC(=O)c1ccc(Nc2nc(OC3CCCC3)c3c(-c4ccc5nc(C)oc5c4)c[nH]c3n2)c(OC)c1,25.6

# Same assay, conditions: second compound 0.316 µM; first compound 0.0316 µM; active compounds read low
row,Structure (SMILES),"viability, T/C [%]"
1,C#Cc1c(F)ccc2cc(O)cc(-c3ncc4c(N5CC6CCC(C5)N6)nc(OCC56CCCN5CC(F)C6)nc4c3F)c12 (configuration not stated) + CNC(=O)c1ccc(Nc2nc(OC3CCCC3)c3c(-c4ccc5nc(C)oc5c4)c[nH]c3n2)c(OC)c1,86
2,C=C(F)C(=O)N1CCN(c2nc(OCC3CCCN3C)nc3c2CCN(c2cccc4cccc(Cl)c24)C3)CC1CC#N (configuration not stated) + CNC(=O)c1ccc(Nc2nc(OC3CCCC3)c3c(-c4ccc5nc(C)oc5c4)c[nH]c3n2)c(OC)c1,79.5
3,CC(CO)NC(=O)c1cc(-c2ccc(Cl)cc2)nn(-c2cnn(C)c2)c1=O (configuration not stated) + CNC(=O)c1ccc(Nc2nc(OC3CCCC3)c3c(-c4ccc5nc(C)oc5c4)c[nH]c3n2)c(OC)c1,79.1
4,CC(Nc1ccc2c(c1)OCCn1cc(N3C(=O)OCC3C(F)F)nc1-2)C(N)=O (configuration not stated) + CNC(=O)c1ccc(Nc2nc(OC3CCCC3)c3c(-c4ccc5nc(C)oc5c4)c[nH]c3n2)c(OC)c1,62.5
5,COc1c(OCCCN2CCOCC2)ccc2c3n(c(=NC(=O)c4cnc(N)nc4)nc12)CCN3 + CNC(=O)c1ccc(Nc2nc(OC3CCCC3)c3c(-c4ccc5nc(C)oc5c4)c[nH]c3n2)c(OC)c1,12.7

# Same assay, conditions: second compound 0.316 µM; first compound 0.1 µM; active compounds read low
row,Structure (SMILES),"viability, T/C [%]"
1,C#Cc1c(F)ccc2cc(O)cc(-c3ncc4c(N5CC6CCC(C5)N6)nc(OCC56CCCN5CC(F)C6)nc4c3F)c12 (configuration not stated) + CNC(=O)c1ccc(Nc2nc(OC3CCCC3)c3c(-c4ccc5nc(C)oc5c4)c[nH]c3n2)c(OC)c1,74.3
2,C=C(F)C(=O)N1CCN(c2nc(OCC3CCCN3C)nc3c2CCN(c2cccc4cccc(Cl)c24)C3)CC1CC#N (configuration not stated) + CNC(=O)c1ccc(Nc2nc(OC3CCCC3)c3c(-c4ccc5nc(C)oc5c4)c[nH]c3n2)c(OC)c1,75.8
3,CC(CO)NC(=O)c1cc(-c2ccc(Cl)cc2)nn(-c2cnn(C)c2)c1=O (configuration not stated) + CNC(=O)c1ccc(Nc2nc(OC3CCCC3)c3c(-c4ccc5nc(C)oc5c4)c[nH]c3n2)c(OC)c1,76.8
4,CC(Nc1ccc2c(c1)OCCn1cc(N3C(=O)OCC3C(F)F)nc1-2)C(N)=O (configuration not stated) + CNC(=O)c1ccc(Nc2nc(OC3CCCC3)c3c(-c4ccc5nc(C)oc5c4)c[nH]c3n2)c(OC)c1,23.5
5,COc1c(OCCCN2CCOCC2)ccc2c3n(c(=NC(=O)c4cnc(N)nc4)nc12)CCN3 + CNC(=O)c1ccc(Nc2nc(OC3CCCC3)c3c(-c4ccc5nc(C)oc5c4)c[nH]c3n2)c(OC)c1,7.32

# Same assay, conditions: second compound 0.316 µM; first compound 0.316 µM; active compounds read low
row,Structure (SMILES),"viability, T/C [%]"
1,C#Cc1c(F)ccc2cc(O)cc(-c3ncc4c(N5CC6CCC(C5)N6)nc(OCC56CCCN5CC(F)C6)nc4c3F)c12 (configuration not stated) + CNC(=O)c1ccc(Nc2nc(OC3CCCC3)c3c(-c4ccc5nc(C)oc5c4)c[nH]c3n2)c(OC)c1,78.5
2,C=C(F)C(=O)N1CCN(c2nc(OCC3CCCN3C)nc3c2CCN(c2cccc4cccc(Cl)c24)C3)CC1CC#N (configuration not stated) + CNC(=O)c1ccc(Nc2nc(OC3CCCC3)c3c(-c4ccc5nc(C)oc5c4)c[nH]c3n2)c(OC)c1,81.9
3,CC(CO)NC(=O)c1cc(-c2ccc(Cl)cc2)nn(-c2cnn(C)c2)c1=O (configuration not stated) + CNC(=O)c1ccc(Nc2nc(OC3CCCC3)c3c(-c4ccc5nc(C)oc5c4)c[nH]c3n2)c(OC)c1,74.6
